Reference: patent publication US10828326B2, “Compositions and methods for treating and preventing venom related poisoning” (priority 2015, dated 2020)

System: human plasma
Assay: Thrombelastography of venom naïve human plasma with iron and/or CO addition (Example I)
Assay type: biochemical
Details: baseline (venom naïve); 10 μM FeCl3 and/or 100 μM CORM-2; compared to plasma without any additions
Method: Two-hundred mg of lyophilized, pooled venom was obtained from four western diamondback rattlesnakes (Crotalus atrox) for experimentation. Venom was reconstituted in calcium-free phosphate buffered saline (PBS, Sigma-Aldrich, Saint Louis, Mo., USA) at a concentration of 20 mg/ml, aliquoted, and then stored at −80° C. until experimentation at the University of Arizona. Pooled human normal plasma (George King Bio-Medical, Overland Park, Kans., USA) anticoagulated with sodium citrate was rapidly thawed at 37° C. and used for experimentation. To assess the effects of pretreatment of fibrinogen with iron, CO, or both, 1% additions of PBS, ferric chloride (FeCl3, 99.9% pure, Sigma-Aldrich, Saint Louis, Mo., USA) in PBS, or CORM-2 (tricarbonyldichlororuthenium (II) dimer, a CO releasing molecule, Sigma-Aldrich, Saint Louis, Mo., USA) dissolved in dimethyl sulfoxide (DMSO, Sigma-Aldrich, Saint Louis, Mo., USA). The final concentrations of FeCl3 and CORM-2 were 10 μM and 100 μM, respectively; these concentrations are associated with nearly maximal augmenting effects on coagulation kinetics (see, Nielsen V G, et al., Blood Coagul Fibrinolysis 2014; 25:695-702). Plasma was exposed to these various agents for at least 5 min prior to incubations with venom.
The final volume for all subsequently described plasma sample mixtures was 359.4 μl. Sample composition consisted of 326 μl of plasma; 10 μl of tissue factor reagent (0.1% final concentration in distilled water; Diagnostica Stago S.A.S., Asnieres sur Seine, France) and 3.4 μl of PBS or venom (final concentration 0.5 μg/ml). […] The aforementioned plasma and venom mixtures were placed in a disposable cup in a computer-controlled Thrombelastograph® hemostasis system (Model 5000, Haemoscope Corp., Niles, Ill., USA) and incubated for 5 or 20 min at 37° C., with addition of 20 μl of 200 mM CaCl2) as the last step to initiate clotting. Data were collected at 37° C. for 15 min after 5 min of incubation, whereas samples incubated with venom for 20 min had data collected for 30 min, given the prolonged onset of coagulation and diminished rate of thrombus formation. The following elastic modulus-based parameters previously described (see, Nielsen, et al., 2014, Blood Coagul. Fibrinolysis 25:695-702; Nielsen, et al., 2011, Blood Coagul. Fibrinolysis 22: 443-447); Nielsen V G, et al., Blood Coagul Fibrinolysis 2014; 25:845-850) were determined: time to maximum rate of thrombus generation (TMRTG): this is the time interval (min) observed prior to maximum speed of clot growth; maximum rate of thrombus generation (MRTG): this is the maximum velocity of clot growth observed (dynes/cm^2/sec); and total thrombus generation (TTG, dynes/cm^2), the final viscoelastic resistance observed after clot formation.
Data are presented as mean+SD. A commercially available statistical program was used for one-way analysis of variance followed by Holm-Sidak post hoc analyses (SigmaStat 3.1, Systat Software, Inc., San Jose, Calif., USA). Graphics depicting viscoelastic data were generated with a commercially available program (OrigenPro 7.5, OrigenLab Corporation, Northampton, Mass., USA; CorelDRAW12, Corel Corporation, Mountain View, Calif., USA).

## [Cl][Fe]([Cl])[Cl] [iron, ferric chloride]
  maximum rate of thrombus generation (MRTG): increases
  time to maximum rate of thrombus generation (TMRTG): significantly decreases
  total thrombus generation (TTG): does not affect
